Measured values reported in patent US7341715B2, “Method and agents on the basis of 2-mercaptopropionic acid amides for durable hair forming and a method for producing same” (Wella AG, priority 2000, dated 2008).

Key:
[1] = Comparison of the stabilities of the waves: wave stability (WSN); details: waving solution 87 mmoles/100 g reducing agent, standardized to glycerin monothioglycolate solution pH 9 = 100%; for WSN pH = 7: pH 7, 20 minutes at 50° C.; for WSN pH = 8: pH 8, 20 minutes at 50° C.; for WSN pH = 9: pH 9, 20 minutes at 50° C.
Description: The waving effectiveness of the 1-mercaptopropionamides was determined using glycerin monothioglycolate as comparison substance with the help of waving solutions at a pH of 7, 8 and 9. For this purpose, pre-bleached and therefore damaged counting hair strands (consisting of about 100 hairs) from Middle European hair was wound wet onto standardized spiral curlers (internal diameter of 3 millimeters) and, after being conditioned in an air-conditioned room (temperature: 20° C., relative humidity: 65%), treated with a solution of the reducing agent, containing 87 mmoles/100 g and adjusted to the respective pH. The amount of waving liquid applied was calculated from the ratio of 1:1.2 (1 g of hair: 1.2 mL of waving liquid). A period of action of 20 minutes at a temperature of 50° C. was selected. Subsequently, the hair was fixed with a peroxide-containing material, removed from the curlers and hung up for 4 hours in water (waterbath temperature: 40° C.).
The wave stability (WSN) is calculated from the following formula:
[formula] • 1o=total length of the not shaped, stretched strands (16.5 cm) • 1t=length of the strands, removed from the curlers and suspended, after 240 minutes • 1l=length of the shaped strands on curlers (for curlers with an internal diameter of 3 mm, 1l=35 mm)
As a standard, strands were treated with a glycerin monothioglycolate solution, the pH of which had been adjusted to a value of 9. The standardized wave stabilities, given below in Table 1, relate to this standard solution (pH=9), the wave stability (WSN) of which has been set at 100%.

pKa value = type: physicochemical

## CC(S)C(=O)NCCN (stereo not shown) [N-(2-Aminoethyl)-2-mercaptopropionamide]
[1]
  WSN pH = 7: 61%
  WSN pH = 8: 81%
  WSN pH = 9: 87%

## CC(S)C(=O)NCCN1CCOCC1 (stereo not shown) [N-(2-Morpholinoethyl)-2-mercaptopropionamide]
[1]
  WSN pH = 7: 85%
  WSN pH = 8: 93%
  WSN pH = 9: 92%

## CCCN(CCO)C(=O)C(C)S (stereo not shown) [N-Propyl,N-(2-hydroxyethyl)-2-mercaptopropionamide]
[1]
  WSN pH = 7: 77%
  WSN pH = 8: 89%
  WSN pH = 9: 99%
other
  melting point: 80 °C

## CC(S)C(=O)NCCCN(C)C (stereo not shown) [N-(3-Dimethylaminopropyl)-2-mercaptopropionamide]
[1]
  WSN pH = 7: 72%
  WSN pH = 8: 83%
  WSN pH = 9: 95%
other
  melting point: 84 °C

## COCCCNC(=O)C(C)S (stereo not shown) [N-(3-Methoxypropyl)-2-mercaptopropionamide]
[1]
  WSN pH = 7: 79%
  WSN pH = 8: 92%
  WSN pH = 9: 91%
other
  melting point: 97 °C

## CCN(CC)CCNC(=O)C(C)S (stereo not shown) [N-(2-Diethylaminoethyl)-2-mercaptopropionamide]
[1]
  WSN pH = 7: 71%
  WSN pH = 8: 80%
  WSN pH = 9: 77%
other
  melting point: 74 °C

## COCCNC(=O)C(C)S (stereo not shown) [N-(2-Methoxyethy)-2-mercaptopropionamide]
[1]
  WSN pH = 7: 87%
  WSN pH = 8: 99%
  WSN pH = 9: 106%

## CC(S)C(=O)NCCN(C)C (stereo not shown) [N-(2-Dimethylaminoethyl)-2-mercaptopropionamide]
[1]
  WSN pH = 7: 81%
  WSN pH = 8: 87%
  WSN pH = 9: 83%
other
  melting point: 83 °C

## CC(S)C(=O)N(C)CCO (stereo not shown) [N-Methyl,N-(2-hydroxyethyl)-2-mercaptopropionamide]
[1]
  WSN pH = 7: 72%
  WSN pH = 8: 91%
  WSN pH = 9: 91%
other
  melting point: 95 °C

## COCC(C)NC(=O)C(C)S (stereo not shown) [N-(1-Methoxy-2-propyl)-2-mercaptopropionamide]
[1]
  WSN pH = 7: 91%
  WSN pH = 8: 95%
  WSN pH = 9: 99%
other
  melting point: 60 °C

## CCC(O)CNC(=O)C(C)S (stereo not shown) [N-(2-Hydroxy-1-butyl)-2-mercaptopropionamide]
[1]
  WSN pH = 7: 79%
  WSN pH = 8: 91%
  WSN pH = 9: 94%

## CC(S)C(=O)N(CCO)C(C)C (stereo not shown) [N-Isopropyl,N-(2-hydroxyethyl)-2-mercaptopropionamide]
[1]
  WSN pH = 7: 65%
  WSN pH = 8: 88%
  WSN pH = 9: 109%
other
  melting point: 100 °C

## CC(S)C(=O)NCCCN (stereo not shown) [N-(3-Aminopropyl)-2-mercaptopropionamide]
[1]
  WSN pH = 7: 67%
  WSN pH = 8: 82%
  WSN pH = 9: 88%

## CC(O)CNC(=O)C(C)S (stereo not shown) [N-(2-Hydroxypropyl)-2-mercaptopropionamide]
[1]
  WSN pH = 7: 78%
  WSN pH = 8: 94%
  WSN pH = 9: 94%
pKa value
  pKa: 8.37

## CC(S)C(=O)NCC1CCCO1 (stereo not shown) [N-Tetrahydrofurfuryl-2-mercaptopropionamide]
[1]
  WSN pH = 7: 85%
  WSN pH = 8: 88%
  WSN pH = 9: 94%
other
  melting point: 82 °C

## CC(S)C(=O)N1CCN(C)CC1 (stereo not shown) [N,N-(4-Methylaza-pentamethylene)-2-mercaptopropionamide]
[1]
  WSN pH = 7: 78%
  WSN pH = 8: 86%
  WSN pH = 9: 78%

## CCNCCNC(=O)C(C)S (stereo not shown) [N-(2-Ethylaminoethyl)-2-mercaptopropionamide]
[1]
  WSN pH = 7: 57%
  WSN pH = 8: 82%
  WSN pH = 9: 60%

## CCC(CO)NC(=O)C(C)S (stereo not shown) [N-(1-Hydroxymethylpropyl)-2-mercaptopropionamide]
[1]
  WSN pH = 7: 73%
  WSN pH = 8: 88%
  WSN pH = 9: 85%

## CCN(CC)CCCNC(=O)C(C)S (stereo not shown) [N-(3-Diethylaminopropyl)-2-mercaptopropionamide]
[1]
  WSN pH = 7: 77%
  WSN pH = 8: 73%
  WSN pH = 9: 81%
other
  melting point: 65 °C

## COCCN(CCOC)C(=O)C(C)S (stereo not shown) [N,N-Bis-(2-methoxyethyl)-2-mercaptopropionamide]
[1]
  WSN pH = 7: 78%
  WSN pH = 8: 93%
  WSN pH = 9: 91%
other
  melting point: 85 °C

## Thiolactic acid [reference compound]
[1]
  WSN pH = 7: 57%
  WSN pH = 8: 50%
  WSN pH = 9: 70%

## CNCCCNC(=O)C(C)S (stereo not shown) [N-(3-Methylaminopropyl)-2-mercaptopropionamide]
[1]
  WSN pH = 7: 55%
  WSN pH = 8: 73%
  WSN pH = 9: 78%

## CC(S)C(=O)NCCO (stereo not shown) [N-(2-Hydroxyethyl)-2-mercaptopropionamide]
[1]
  WSN pH = 7: 84%
  WSN pH = 8: 106%
  WSN pH = 9: 103%

## CC(S)C(=O)N1CCCC(O)C1 (stereo not shown)
[1]
  WSN pH = 7: 79%
  WSN pH = 8: 94%
  WSN pH = 9: 89%

## CCN(CCO)C(=O)C(C)S (stereo not shown) [N-Ethyl,N-(2-hydroxyethyl)-2-mercaptopropionamide]
[1]
  WSN pH = 7: 94%
  WSN pH = 8: 83%
  WSN pH = 9: 114%
other
  melting point: 95 °C
